# Source: patent US20130123215A1, “2,5-DIOXOIMIDAZOLIDIN-1-YL-3-PHENYLUREA DERIVATIVES AS FORMYL PEPTIDE RECEPTOR LIKE-1 (FPRL-1) RECEPTOR MODULATORS” (ALLERGAN, INC., priority 2011, published 2013)
# pEC50: −log10 of the molar value.
# Molecular target: T1, FPRL-1 (Homo sapiens, UniProt P25090)
# T1 construct: expressed in transfected cells; host or cells: CHO-Gα16 cells stably expressing FPRL1
# T1 sequence (P25090 1-351): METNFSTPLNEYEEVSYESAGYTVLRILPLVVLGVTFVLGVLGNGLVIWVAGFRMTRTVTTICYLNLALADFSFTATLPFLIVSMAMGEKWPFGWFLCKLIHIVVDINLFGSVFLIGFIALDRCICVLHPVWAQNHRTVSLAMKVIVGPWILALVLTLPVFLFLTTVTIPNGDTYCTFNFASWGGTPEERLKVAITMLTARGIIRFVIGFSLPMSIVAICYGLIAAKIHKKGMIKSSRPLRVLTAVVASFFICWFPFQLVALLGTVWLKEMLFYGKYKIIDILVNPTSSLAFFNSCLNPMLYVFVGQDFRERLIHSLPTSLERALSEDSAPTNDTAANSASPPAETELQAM
# Test: FPRL-1 Ga16-CHO compound-induced calcium activity (FLIPR Tetra)
# Assay type: cell-based
# Conditions: CHO-Gα16 cells stably expressing FPRL1; calcium activity on FLIPR Tetra; tested at 0.61 to 10,000 nM; read-out: FPRL-1 Ga16-CHO EC50
# Method: HEK-Gα16 and CHO-Gα16 cells stably expressing FPRL1 were cultured in (F12, 10% FBS, 1% PSA, 400 μg/ml geneticin and 50 μg/ml hygromycin) and HEK-Gqi5 cells stable expressing FPR1 were cultured in (DMEM high glucose, 10% FBS, 1% PSA, 400 μg/ml geneticin and 50 μg/ml hygromycin). In general, the day before the experiment, 18,000 cells/well were plated in a 384-well clear bottom poly-d-lysine coated plate. The following day the screening compound-induced calcium activity was assayed on the FLIPR^Tetra. The drug plates were prepared in 384-well microplates using the EP3 and the MultiPROBE robotic liquid handling systems. Compounds were tested at concentrations ranging from 0.61 to 10,000 nM. Results are expressed as EC50 (nM) and efficacy values.
row,Structure (SMILES),pEC50
1,"CC(C)C1(CC(=O)NC(CO)CO)NC(=O)N(NC(=O)Nc2ccc(Br)cc2)C1=O (stereo not drawn) [2-[1-{[(4-Bromophenyl)carbamoyl]amino}-2,5-dioxo-4-(propan-2-yl)imidazolidin-4-yl]-N-(1,3-dihydroxypropan-2-yl)acetamide]",7.79
2,"CCc1ccc2[nH]c(C3(C)NC(=O)N(c4ccc(Br)cc4)C3=O)cc2c1 (stereo not drawn) [3-(4-Bromophenyl)-5-(5-ethyl-1H-indol-2-yl)-5-methylimidazolidine-2,4-dione]",5.59
3,"CCC1(CC)NC(=O)N(NC(=O)Nc2ccc(Cl)cc2)C1=O [Compound 2, 1-(4-Chlorophenyl)-3-(4,4-diethyl-2,5-dioxoimidazolidin-1-yl)urea]",7.57
4,"CCC1(CC)NC(=O)N(NC(=O)Nc2ccc(OC)cc2)C1=O [Compound 3, 1-(4-Methoxyphenyl)-3-(4,4-diethyl-2,5-dioxoimidazolidin-1-yl)urea]",6.71
5,"CCc1ccc(NC(=O)NN2C(=O)NC(CC)(CC)C2=O)cc1 [Compound 4, 1-(4-Ethylphenyl)-3-(4,4-diethyl-2,5-dioxoimidazolidin-1-yl)urea]",6.90
6,"CCC1(CC)NC(=O)N(NC(=O)Nc2ccc(C#N)cc2)C1=O [Compound 5, 1-(4-Cyanophenyl)-3-(4,4-diethyl-2,5-dioxoimidazolidin-1-yl)urea]",5.91
7,"CCC1(CC)NC(=O)N(NC(=O)Nc2ccc(C)cc2)C1=O [Compound 7, 1-(4-Methylphenyl)-3-(4,4-diethyl-2,5-dioxoimidazolidin-1-yl)urea]",7.02
8,"CCC1(CC)NC(=O)N(NC(=O)Nc2ccc(SC)cc2)C1=O [Compound 8, 1-(4-Methylthiophenyl)-3-(4,4-diethyl-2,5-dioxoimidazolidin-1-yl)urea]",7.43
9,"CCC1(CC)NC(=O)N(NC(=O)Nc2ccc(Cl)c(F)c2)C1=O [Compound 19, 1-(4-Chloro-3-fluorophenyl)-3-(4,4-diethyl-2,5-dioxoimidazolidin-1-yl)urea]",6.83
10,"CC1(COc2ccccc2)NC(=O)N(NC(=O)Nc2ccc(Br)cc2)C1=O (stereo not drawn) [Compound 25, 1-(4-Bromophenyl)-3-(4-methyl-2,5-dioxo-4-(phenoxymethyl)imidazolidin-1-yl)urea]",7.66
11,"CCC1(CCc2ccccc2)NC(=O)N(NC(=O)Nc2ccc(Br)cc2)C1=O (stereo not drawn) [Compound 30, 1-(4-Bromophenyl)-3-(4-ethyl-2,5-dioxo-4-(phenethyl)imidazolidin-1-yl)urea]",9.30
12,CC(C)CC1(CCc2ccccc2)NC(=O)N(NC(=O)Nc2ccc(Br)cc2)C1=O (stereo not drawn) [Compound 31],7.06
13,"CC1(CCc2ccc(Cl)cc2)NC(=O)N(NC(=O)Nc2ccc(Br)cc2)C1=O (stereo not drawn) [Compound 33, 1-(4-Bromophenyl)-3-(4-(4-chlorophenethyl)-4-methyl-2,5-dioxoimidazolidin-1-yl)urea]",6.48
14,CC1(CCc2ccco2)NC(=O)N(NC(=O)Nc2ccc(Br)cc2)C1=O (stereo not drawn) [Compound 35],8.16
15,"CC1(CCc2ccc(F)cc2)NC(=O)N(NC(=O)Nc2ccc(Br)cc2)C1=O (stereo not drawn) [Compound 39, 1-(4-Bromophenyl)-3-(4-(4-fluorophenethyl)-4-methyl-2,5-dioxoimidazolidin-1-yl)urea]",7.77
16,"CC1(CCc2cccc(F)c2)NC(=O)N(NC(=O)Nc2ccc(Br)cc2)C1=O (stereo not drawn) [Compound 41, 1-(4-Bromophenyl)-3-(4-(3-fluorophenethyl)-4-methyl-2,5-dioxoimidazolidin-1-yl)urea]",7.95
17,"CC1(CCc2ccc(O)cc2)NC(=O)N(NC(=O)Nc2ccc(Br)cc2)C1=O (stereo not drawn) [Compound 42, 1-(4-Bromophenyl)-3-(4-(4-hydroxyphenethyl)-4-methyl-2,5-dioxoimidazolidin-1-yl)urea]",7.88
18,CC1(CCc2cccs2)NC(=O)N(NC(=O)Nc2ccc(Br)cc2)C1=O (stereo not drawn) [Compound 43],8.10
19,"Cc1ccc(CCC2(C)NC(=O)N(NC(=O)Nc3ccc(Br)cc3)C2=O)o1 (stereo not drawn) [Compound 46, 1-(4-Bromophenyl)-3-(4-methyl-4-(2-(5-methylfuran-2-yl)ethyl)2,5-dioxoimidazolidin-1-yl)urea]",8.46
20,"CC1(CCc2ccc(O)c(F)c2)NC(=O)N(NC(=O)Nc2ccc(Br)cc2)C1=O (stereo not drawn) [Compound 47, 1-(4-Bromophenyl)-3-(4-(3-fluoro-4-hydroxyphenethyl)-4-methyl-2,5-dioxoimidazolidin-1-yl)urea]",8.10

# The next lines start with the values.
row,pEC50,Structure (SMILES)
1,8.04,"CCC1(CC)NC(=O)N(NC(=O)Nc2ccc(Br)cc2)C1=O [Compound 1, 1-(4-Bromophenyl)-3-(4,4-diethyl-2,5-dioxoimidazolidin-1-yl)urea]"
2,7.81,"CCC1(CC)NC(=O)N(NC(=O)Nc2ccc(Br)cc2F)C1=O [Compound 6, 1-(4-Bromo-2-fluorophenyl)-3-(4,4-diethyl-2,5-dioxoimidazolidin-1-yl)urea]"
3,7.62,"O=C(Nc1ccc(Br)cc1F)NN1C(=O)NC2(CCCC2)C1=O [Compound 11, 1-(4-Bromo-2-fluorophenyl)-3-(2,4-dioxo-1,3-diazaspiro[4.4]nonan-3-yl)urea]"
4,7.13,"CC1(C)NC(=O)N(NC(=O)Nc2ccc(Br)cc2)C1=O [Compound 12, 1-(4-Bromophenyl)-3-(4,4-dimethyl-2,5-dioxoimidazolidin-1-yl)urea]"
5,7.33,"O=C(Nc1ccc(Br)cc1)NN1C(=O)NC2(Cc3ccccc3C2)C1=O [Compound 13, 1-(4-Bromophenyl)-3-(2,5-dioxo-1′,3′-dihydrospiro[imidazolidine-4,2′-inden]-1-yl)urea]"
6,7.87,"O=C(Nc1ccc(Br)cc1)NN1C(=O)NC2(CCCCC2)C1=O [Compound 14, 1-(4-Bromophenyl)-3-(2,4-dioxo-1,3-diazaspiro[4.5]decan-3-yl)urea]"
7,6.63,"O=C(Nc1ccc(Br)cc1F)NN1C(=O)NC2(CCCCC2)C1=O [Compound 15, 1-(4-Bromo-2-fluorophenyl)-3-(2,4-dioxo-1,3-diazaspiro[4.5]decan-3-yl)urea]"
8,7.41,"CCC1(CC)NC(=O)N(NC(=O)Nc2ccc(Cl)cc2F)C1=O [Compound 16, 1-(4-Chloro-2-fluorophenyl)-3-(4,4-diethyl-2,5-dioxoimidazolidin-1-yl)urea]"
9,7.21,"CC1(CCc2ccccc2)NC(=O)N(NC(=O)Nc2ccc(Br)cc2F)C1=O (stereo not drawn) [Compound 17, 1-(4-Bromo-2-fluorophenyl)-3-(4-methyl-2,5-dioxo-4-phenethylimidazolidin-1-yl)urea]"
10,8.20,"CCC1(C(C)C)NC(=O)N(NC(=O)Nc2ccc(Br)cc2F)C1=O (stereo not drawn) [Compound 20, 1-(4-Bromo-2-fluorophenyl)-3-(4-ethyl-4-isopropyl-2,5-dioxoimidazolidin-1-yl)urea]"
11,6.72,O=C(Nc1ccc(Br)cc1F)NN1C(=O)NC2(CCc3ccccc3C2)C1=O (stereo not drawn) [Compound 26]
12,7.27,"O=C(Nc1ccc(Br)cc1)NN1C(=O)NC2(CCc3ccccc3C2)C1=O (stereo not drawn) [Compound 27, 1-(4-Bromophenyl)-3-(2,5-dioxo-3′,4′-dihydro-1H,1′H-spiro[imidazolidine-4,2′-naphthalen]-1-yl)urea]"
13,7.28,"CC1(COc2ccccc2)NC(=O)N(NC(=O)Nc2ccc(Br)cc2F)C1=O (stereo not drawn) [Compound 28, 1-(4-Bromo-2-fluorophenyl)-3-(4-methyl-2,5-dioxo-4-(phenoxymethyl)imidazolidin-1-yl)urea]"
14,> 8.70,"CCC1(CCc2ccccc2)NC(=O)N(NC(=O)Nc2ccc(Br)cc2F)C1=O (stereo not drawn) [Compound 29, 1-(4-Bromo-2-fluorophenyl)-3-(4-ethyl-2,5-dioxo-4-(phenethyl)imidazolidin-1-yl)urea]"
15,6.98,CC(C)CC1(CCc2ccccc2)NC(=O)N(NC(=O)Nc2ccc(Br)cc2F)C1=O (stereo not drawn) [Compound 32]
16,5.86,CC1(CCc2ccc(Cl)cc2)NC(=O)N(NC(=O)Nc2ccc(Br)cc2F)C1=O (stereo not drawn) [Compound 34]
17,7.40,CC1(CCc2ccco2)NC(=O)N(NC(=O)Nc2ccc(Br)cc2F)C1=O (stereo not drawn) [Compound 36]
18,7.85,"CC1(CCc2ccccc2F)NC(=O)N(NC(=O)Nc2ccc(Br)cc2)C1=O (stereo not drawn) [Compound 37, 1-(4-Bromophenyl)-3-(4-(2-fluorophenethyl)-4-methyl-2,5-dioxoimidazolidin-1-yl)urea]"
19,7.25,"CC1(CCc2ccccc2F)NC(=O)N(NC(=O)Nc2ccc(Br)cc2F)C1=O (stereo not drawn) [Compound 38, 1-(4-Bromo-2-fluorophenyl)-3-(4-(2-fluorophenethyl)-4-methyl-2,5-dioxoimidazolidin-1-yl)urea]"
20,6.93,"CC1(CCc2ccc(F)cc2)NC(=O)N(NC(=O)Nc2ccc(Br)cc2F)C1=O (stereo not drawn) [Compound 40, 1-(4-Bromo-2-fluorophenyl)-3-(4-(4-fluorophenethyl)-4-methyl-2,5-dioxoimidazolidin-1-yl)urea]"
21,7.07,CC1(CCc2cccs2)NC(=O)N(NC(=O)Nc2ccc(Br)cc2F)C1=O (stereo not drawn) [Compound 44]
22,8.06,"CC1(CCc2ccc(O)cc2)NC(=O)N(NC(=O)Nc2ccc(Br)cc2F)C1=O (stereo not drawn) [Compound 45, 1-(4-Bromo-2-fluorophenyl)-3-(4-(4-hydroxyphenethyl)-4-methyl-2,5-dioxoimidazolidin-1-yl)urea]"
